Source: patent US8293506B2, “L-cysteine-producing bacterium and a method for producing L-cysteine” (Ajinomoto Co., Inc., priority 2009, dated 2012)

Tests used:
[1] = test system: to/C-deficient strain JW5503/pCA24; test: Growth test on L agar medium containing cysteine, tolC-deficient strain; type: cell-based, Escherichia coli; conditions: L agar with 10, 15, 20 mM cysteine, 37° C. overnight; FIG. 1
Source text: (§1) Since a dsbA-deficient strain was obtained by the screening of the Keio Collection, growth of the gene-deficient strain was observed on the agar medium containing cysteine of different concentrations in order to analyze the sensitivity of that strain to cysteine in more detail. Furthermore, as for the to/C gene (Japanese Patent Application No. 2008-040167, Wiriyathanawudhiwong, N. et al., Appl. Microbiol. Biotechnol. (2009) 81:903-913), which was previously obtained in a similar manner, and of which deletion is known to induce cysteine sensitivity, a similar experiment was performed by using a to/C-deficient strain. The dsbA-deficient strain and to/C-deficient strain used in this experiment were JW3832 strain and JW5503 strain, respectively (both were included in the Keio collection), and their parent strain was the BW25113 strain (Andreas Haldimann, A. and Wanner, B. L., J. Bacteriol., 2001 November, 183 (21):6384-6393). The plasmids carrying the dsbA gene and the to/C gene for the complementation experiment were pDsbA and pTo1C (ASKA clone (Kitagawa, M., et al., 2005, DNA Res., 12:291-299)), and the vector used as the base of them was pCA24 (vector for ASKA clone (Kitagawa, M., et al., 2005, DNA Res., 12:291-299)). […]

[2] = test system: OstA protein; test: Oxidized and reduced states of OstA protein (AMS modification, Western blotting); type: cell-based, Escherichia coli; conditions: wild-type strain with pmyc-OstA, 5 mM L-cysteine; FIG. 3
Source text: Since it was elucidated that the reduced type DsbA was accumulated by cysteine (reduction stress), it was decided to investigate toxicity of cysteine and oxidized and reduced states of a protein in the periplasm. The OstA is a protein in the periplasm indispensable to growth, and requires disulfide bond formed by DsbA. In order to investigate the oxidized and reduced states of the OstA protein, the E. coli BW25113 strain as the wild-type parent strain and the dsbA-deficient JW3832 strain derived from the BW25113 strain were used, and the plasmid pmyc-OstA for expressing OstA fused with an Myc tag (Kadokura, H. et al., 2004, Science, 303, 534-537) was introduced into them. Under the same culture conditions as those of the aforementioned experiment for investigating the oxidized and reduced states of DsbA, addition of L-cysteine (final concentration: 5 mM) and modification of the protein with AMS (4-acetamido-4′-maleimidyl-stilbene-2,2′-disulfonate) were performed, and the OstA protein was detected by Western blotting. As the antibody, anti-Myc (mouse) was used in this experiment.

[3] = test system: dsbA-deficient strain JW3832/pCA24; test: Growth test on L agar medium containing cysteine, dsbA-deficient strain; type: cell-based, Escherichia coli; conditions: L agar with 10, 15, 20 mM cysteine, 37° C. overnight; FIG. 1
Source text: as §1

[4] = biological target: T1, DsbA protein (Escherichia coli, UniProt P0AEG4); test: Oxidized and reduced states of DsbA protein (AMS modification, Western blotting); type: cell-based; conditions: wild-type strain, 5 mM cysteine, 20 minutes; FIG. 2
T1 construct: endogenous in cells; host or cells: E. coli BW25113 (wild-type strain, also with pYdeD)
T1 sequence (P0AEG4 20-208): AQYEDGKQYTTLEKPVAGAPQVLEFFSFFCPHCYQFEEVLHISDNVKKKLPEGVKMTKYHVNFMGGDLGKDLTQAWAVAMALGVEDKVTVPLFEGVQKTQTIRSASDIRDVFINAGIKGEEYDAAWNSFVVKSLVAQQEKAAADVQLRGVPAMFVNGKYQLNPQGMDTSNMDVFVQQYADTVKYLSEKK
Source text: The strains used in this experiment were the E. coli BW25113 strain (Andreas Haldimann and Barry L. Wanner, J. Bacteriol., 2001 November, 183 (21):6384-6393) as a wild-type parent strain, the dsbA-deficient JW3832 strain and dsbB-deficient JW5182 strain derived from BW25113 strain (Baba, T, et al., 2006, Mol. Syst. Biol., 2:2006.0008). As a plasmid carrying the dsbB gene, pDsbB (ASKA clone, Kitagawa, M. et al., 2005, DNA Res., 12:291-9) was used.
In order to distinguish the oxidized state and the reduced state of the DsbA protein, the protein was modified with AMS (4-acetamido-4′-maleimidyl-stilbene-2,2′-disulfonate) (Kadokura, H. et al., 2004, Science, 303, 534-537). Each of the wild-type strain, the dsbA-deficient strain, the dsbB-deficient strain, the wild-type strain +pYdeD and the dsbB-deficient strain +pDsbB was cultured overnight at 30° C. in 3 ml of LB medium, and the resulting culture was used as a preculture medium. The preculture medium was inoculated into the LB medium in a 1% amount, and culture was performed at 30° C. with shaking until OD660 reached 0.4 to 0.5. […]
The labeled protein was then separated by non-reduced SDS gel electrophoresis (12.5%), and then detected by Western blotting. […] The label was detected by using ECL Plus Western Blotting Detection Reagents (Amersham).

[5] = test system: wild-type strains (E. coli BW25113); test: Screening of Keio collection on LB agar containing cysteine; type: cell-based, Escherichia coli; conditions: overnight at 37° C.
Experimental: The 3,985 clones of the Keio collection were cultured at 37° C. for 15 hours in 0.5 ml of LB liquid medium. This culture medium was stamped on LB agar media containing cysteine at different concentrations (0, 15, 20, 25 mM), and culture was performed overnight at 37° C. Clones that were cysteine sensitive at the growth inhibition concentration of cysteine for wild-type strains (20 mM) were visually selected. […] A dsbA gene-deficient strain was obtained as a clone showing particularly strong and distinctive cysteine sensitivity among the above candidates.

## N[C@@H](CS)C(=O)O [cysteine, L-cysteine]
[1]
  cysteine sensitivity (growth) compared with control strain BW25113/pCA24: marked cysteine sensitivity
[2]
  oxidized/reduced state of OstA after addition of cysteine: the reduced type accumulated
[3]
  cysteine sensitivity (growth) compared with control strain BW25113/pCA24: marked cysteine sensitivity
[4]
  DsbA-DsbB complex after exposure to cysteine: markedly accumulated
  oxidized/reduced state of DsbA after exposure to cysteine: the reduced type DsbA accumulated
[5]
  growth inhibition concentration of cysteine for wild-type strains: 20 mM
